Data as given in ChEMBL document CHEMBL3853342, “Design, synthesis and biological evaluation of novel benzo-α-pyrone containing piperazine derivatives as potential BRAFV600E inhibitors” (Bioorg Med Chem Lett, 2016).

Assays:
[1] = Antiproliferative activity against human A375 cells assessed as cell growth inhibition after 24 hrs by MTT assay; type: functional, cell-based; details: A-375, 24 h
[2] = Antiproliferative activity against human WM1361 cells assessed as cell growth inhibition after 24 hrs by MTT assay; type: functional, cell-based; details: WM1361, 24 h
[3] = Antiproliferative activity against human WM266.4 cells harboring BRAF V600E mutant assessed as cell growth inhibition after 24 hrs by MTT assay; type: functional, cell-based; details: WM 266-4, 24 h
[4] = target: Serine/threonine-protein kinase B-raf (Homo sapiens, UniProt P15056, V600E); assay: Inhibition of human recombinant GST-tagged BRAF catalytic domain (416 to 766 residues) V600E mutant expressed in baculovirus expression system preincubated for 1 hr followed by human full length recombinant N-terminal His-tagged MEK1 substrate addition measured after 25 mins by gel electrophoresis method
[5] = Cytotoxicity against human 293T cells assessed as cell growth inhibition after 24 hrs by MTT assay; type: toxicity, cell-based, HEK-293T

Sequence of Serine/threonine-protein kinase B-raf (P15056 2-766 V600E limits assumed): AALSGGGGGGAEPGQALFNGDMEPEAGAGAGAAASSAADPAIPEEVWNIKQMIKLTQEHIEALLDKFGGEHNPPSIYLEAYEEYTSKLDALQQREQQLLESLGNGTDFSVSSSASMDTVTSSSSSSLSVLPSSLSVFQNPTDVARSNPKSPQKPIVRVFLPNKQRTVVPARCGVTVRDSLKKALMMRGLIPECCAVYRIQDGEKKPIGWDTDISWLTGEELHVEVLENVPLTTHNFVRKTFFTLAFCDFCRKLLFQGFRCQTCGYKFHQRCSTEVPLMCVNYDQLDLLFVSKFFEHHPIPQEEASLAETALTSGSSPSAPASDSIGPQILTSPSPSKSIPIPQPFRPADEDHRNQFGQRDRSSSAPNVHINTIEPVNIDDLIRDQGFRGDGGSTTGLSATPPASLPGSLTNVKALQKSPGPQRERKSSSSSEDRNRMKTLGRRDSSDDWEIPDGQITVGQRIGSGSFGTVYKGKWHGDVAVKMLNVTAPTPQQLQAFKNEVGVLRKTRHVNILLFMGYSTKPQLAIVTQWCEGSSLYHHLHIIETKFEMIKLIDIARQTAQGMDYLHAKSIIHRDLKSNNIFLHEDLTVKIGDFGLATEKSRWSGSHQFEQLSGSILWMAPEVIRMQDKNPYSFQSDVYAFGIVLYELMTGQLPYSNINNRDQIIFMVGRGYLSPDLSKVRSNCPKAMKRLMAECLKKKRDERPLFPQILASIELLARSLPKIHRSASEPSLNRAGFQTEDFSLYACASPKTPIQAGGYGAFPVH

Compound: O=c1oc2ccccc2c(N2CCN(c3cccc(C(F)(F)F)c3)CC2)c1CO
- IC50 [1]: 31.9 µM
- IC50 [2]: > 50 µM
- IC50 [3]: 30 µM
- IC50 [4]: 24.2 µM
- CC50 at 24 h [5]: > 50 µM

Compound: O=c1oc2ccccc2c(N2CCN(C(c3ccccc3)c3ccc(Cl)cc3)CC2)c1CO (stereo not given)
- IC50 [1]: 3.89 µM
- IC50 [2]: 30.2 µM
- IC50 [3]: 2.74 µM
- IC50 [4]: 0.92 µM
- CC50 at 24 h [5]: > 50 µM

Compound: O=c1oc2ccccc2c(N2CCN(c3cccc(Cl)c3Cl)CC2)c1CO
- IC50 [1]: 8.45 µM
- IC50 [2]: 45.9 µM
- IC50 [3]: 6.56 µM
- IC50 [4]: 3.27 µM
- CC50 at 24 h [5]: > 50 µM

Compound: COc1ccc(N2CCN(c3c(CO)c(=O)oc4ccccc34)CC2)cc1
- IC50 [1]: 7.23 µM
- IC50 [2]: 40.4 µM
- IC50 [3]: 5.61 µM
- IC50 [4]: 1.84 µM
- CC50 at 24 h [5]: > 50 µM

Compound: O=c1oc2ccccc2c(N2CCN(c3ccccc3F)CC2)c1CO
- IC50 [1]: 32.1 µM
- IC50 [2]: > 50 µM
- IC50 [3]: 37.6 µM
- IC50 [4]: 22 µM
- CC50 at 24 h [5]: > 50 µM

Compound: O=c1oc2ccccc2c(N2CCN(c3cccc(Cl)c3)CC2)c1CO
- IC50 [1]: 40.5 µM
- IC50 [2]: > 50 µM
- IC50 [3]: 46.3 µM
- IC50 [4]: 33.5 µM
- CC50 at 24 h [5]: > 50 µM

Compound: COc1ccccc1N1CCN(c2c(CO)c(=O)oc3ccccc23)CC1
- IC50 [1]: 20 µM
- IC50 [2]: > 50 µM
- IC50 [3]: 18.3 µM
- IC50 [4]: 10.1 µM
- CC50 at 24 h [5]: > 50 µM

Compound: CCN1CCN(c2c(CO)c(=O)oc3ccccc23)CC1
- IC50 [1]: > 50 µM
- IC50 [2]: > 100 µM
- IC50 [3]: > 50 µM
- IC50 [4]: > 50 µM
- CC50 at 24 h [5]: > 50 µM
